Source: patent US11834424B2, “Compounds useful as chaperone-mediated autophagy modulators” (ALBERT EINSTEIN COLLEGE OF MEDICINE, priority 2018, dated 2023)

Test: in vitro
Details: human, microsomes; for CLint(mic) / Remaining (T = 60 min): 3 μM; for Remaining (T = 60 min): 1 h; for CLint scaled at 3 μM: CLint(liver)
Description: Microsome stability was determined in human, rat, and mouse, liver microsomes. Compound at 3 μM final concentration along with 0.5 mg/mL microsome protein and 1 mM NADPH was incubated for 0, 5, 15, 30 and 60 min. As a negative control, test compound was incubated with microsomes in the absence of NADPH. Samples were quenched with methanol and centrifuged for 25 min at 2500 rpm to precipitate proteins. Supernatants were analyzed (N=3) by LC-MS/MS. The In peak area ratio (compound peak area/internal standard peak area) was plotted against time and the gradient of the line determined the elimination rate constant [k=(−1)(slope)].
R^2 is the correlation coefficient of the linear regression for the determination of kinetic constant. T1/2 is the half life and CLint (mic) is the intrinsic clearance. CLint(liver)=CLint (mic)*mg microsomal protein/g liver weight*g liver weight/kg body weight. Liver weight/kg body weight is 20 g/kg for human.

Structure (SMILES)	half-life at 3 μM [min]	CLint(mic) [µL/min/mg]	Remaining (T = 60 min) [%]	CLint scaled at 3 μM [mL/min/kg]
CC(=O)Nc1ccc(C2=Nc3ccc(Cl)cc3OC2)cc1 [CA77, reference compound]	34	40.8	25.9	36.7
CC(=O)Nc1ccc(-c2cnc3cc(Cl)ccc3n2)cc1 [CA77.1, N-(4-(6-chloroquinoxalin-2-yl)phenyl)acetamide]	20.6	67.2	10.8	60.5
